Data published in ChEMBL document CHEMBL5058564, “EUbOPEN Chemogenomics Library 2 (Incucyte)” (2022).

What was measured:
Format in all cases: toxicity, cell-based
[1] = tested on: U2OS; assay: Incucyte cell viability with U2OS; conditions: human, 10 µM, compound concentration 10 uM
[2] = tested on: Fibroblast; assay: Incucyte cell viability with human fibroblast; conditions: 10 µM, compound concentration 10 uM
[3] = tested on: HEK-293T; assay: Incucyte cell viability with HEK293T; conditions: human, 10 µM, compound concentration 10 uM
[4] = 0 h, replicate number 1, timepoint 0 hours
[5] = 6 h, replicate number 2, timepoint 6 hours
[6] = 12 h, replicate number 2, timepoint 12 hours
[7] = 18 h, replicate number 1, timepoint 18 hours
[8] = 18 h, replicate number 2, timepoint 18 hours
[9] = 6 h, replicate number 1, timepoint 6 hours
[10] = 24 h, replicate number 1, timepoint 24 hours
[11] = 24 h, replicate number 2, timepoint 24 hours
[12] = 0 h, replicate number 2, timepoint 0 hours
[13] = 12 h, replicate number 1, timepoint 12 hours
Further: unitless GR value; below 1 slowed growth and below 0 cell loss.

Compound	Growth Rate [1, 4]	Growth Rate [1, 6]	Growth Rate [1, 7]	Growth Rate [1, 8]	Growth Rate [2, 9]	Growth Rate [2, 5]	Growth Rate [2, 6]	Growth Rate [2, 8]	Growth Rate [2, 10]	Growth Rate [2, 11]	Growth Rate [3, 5]	Growth Rate [3, 6]	Growth Rate [3, 7]	Growth Rate [3, 8]	Growth Rate [3, 10]	Growth Rate [2, 13]	Growth Rate [1, 11]	Growth Rate [2, 7]	Growth Rate [2, 4]	Growth Rate [1, 12]	other results
CC#C[C@@H](CC(=O)O)c1ccc(OCc2cccc(-c3ccc(C(F)(F)F)cc3)c2)cc1	0.35	0.96	0.85	0.96	0.66	-0.08	0.23	0.02	0.66	0.31	0.55	0.95	0.65	0.93	0.68	–	–	–	–	–	Growth Rate [1, 5]: 0.69
Cc1cc(OCCCS(C)(=O)=O)cc(C)c1-c1cccc(COc2ccc3c(c2)OC[C@H]3CC(=O)O)c1	0.26	0.89	–	0.9	-0.03	0.19	0.55	0.31	0.78	0.67	–	–	0.7	–	0.69	1	–	–	–	–	Growth Rate [1, 5]: 0.73; Growth Rate [2, 12]: 0.69
O=C1COc2nccc(-c3ccccc3F)c2CN1Cc1cc(C(F)(F)F)cc(C(F)(F)F)c1	-0.7	0.96	0.97	0.94	0.17	–	–	–	0.73	–	0.77	0.89	0.98	0.88	–	0.8	0.93	0.58	–	–	Growth Rate [1, 10]: 0.88
CCc1nc2c(C)cc(C)nc2[nH]1	–	–	0.7	0.93	–	0.58	0.69	0.92	–	–	–	–	–	0.89	–	–	0.96	–	0.65	–	Growth Rate [1, 9]: 0.2; Growth Rate [1, 13]: 0.62
Br.CS(=O)(=O)Nc1c(O)ccc2c1CCCC2C1=NCCN1 (stereo unspecified)	–	–	0.68	–	–	–	–	–	0.94	–	0.33	–	–	–	–	–	–	–	0.32	-1	Growth Rate [1, 9]: -0.8; Growth Rate [1, 13]: 0.72; Growth Rate [1, 10]: 0.86; Growth Rate [2, 12]: 0.39; Growth Rate [3, 13]: 0.92
CC[C@H]1OC(=O)[C@H](C)[C@@H](O[C@H]2C[C@@](C)(OC)[C@@H](O)[C@H](C)O2)[C@H](C)[C@@H](O[C@@H]2O[C@H](C)C[C@H](N(C)C)[C@H]2O)[C@@]2(C)CC(C)=C(O2)[C@H](C)[C@@H](O)[C@]1(C)O	–	–	–	0.96	0.46	0.95	0.44	–	0.64	–	0.55	0.77	–	0.75	–	0.38	–	0.44	–	–	Growth Rate [3, 11]: 0.82
Cc1noc(-c2ccc(-c3ccc(CC(=O)O)cc3)cc2)c1NC(=O)O[C@H](C)c1ccccc1Cl	–	0.92	–	0.93	–	–	–	–	–	–	–	–	0.67	–	0.81	–	0.95	–	-0.69	–	Growth Rate [1, 5]: 0.82; Growth Rate [2, 12]: 0.54; Growth Rate [3, 13]: 0.85
Cc1ccc(Cn2nc(C(=O)N[C@@H]3C(C)(C)[C@@H]4CC[C@@]3(C)C4)cc2-c2ccc(Cl)c(C)c2)cc1	-1	0.74	–	0.82	0.46	0.01	0.14	–	0.72	–	0.75	0.96	0.94	–	0.95	0.76	0.74	0.78	–	–	Growth Rate [1, 5]: 0.89; Growth Rate [1, 13]: 0.92; Growth Rate [1, 10]: 0.86
CN(C)[C@H]1CN(C2CCc3cccc(F)c32)C[C@@H]1c1ccc(N2CCN(S(C)(=O)=O)CC2)cc1 (stereo partly specified)	-0.44	0.83	0.87	0.9	–	0.88	–	–	0.75	–	0.35	0.71	–	0.89	–	–	0.98	0.68	–	-0.68	Growth Rate [1, 9]: 0.58; Growth Rate [1, 5]: 0.61; Growth Rate [1, 13]: 0.63; Growth Rate [1, 10]: 0.97; Growth Rate [3, 11]: 0.8
O=c1c2cccn2c2ccccc2n1CCCN1CCC(c2ccc(Cl)cc2)CC1	–	0.89	–	0.89	-0.55	-0.88	-0.58	-0.28	-0.3	-0.26	0.34	0.39	0.56	0.55	0.76	-0.52	0.8	-0.55	–	-1	Growth Rate [3, 13]: 0.61; Growth Rate [3, 11]: 0.9
CC(F)(F)CN1CCOc2c(nn(-c3ccccc3Cl)c2-c2ccc(Cl)cc2)C1=O	–	–	–	–	-0.37	0.94	0.22	0.75	-0.09	0.06	–	0.82	–	–	–	0.01	–	-0.21	–	-1	–
COc1ccc(S(=O)(=O)N2C(=O)[C@@](c3ccccc3OC)(N3C[C@H](O)C[C@H]3C(=O)N(C)C)c3cc(Cl)ccc32)c(OC)c1	0.6	–	0.82	0.98	0.08	-0.04	0.24	0.45	0.43	0.6	0.78	–	–	–	–	0.09	0.9	0.36	–	-1	Growth Rate [1, 9]: 0.33
N#Cc1cc2c(OCC(O)CN3CCN(C(c4ccccc4)c4ccccc4)CC3)cccc2[nH]1 (racemic)	-0.56	–	–	–	–	–	–	0.91	0.24	–	–	0.62	0.32	0.26	0.27	0.52	–	-0.05	-0.11	-1	Growth Rate [2, 12]: 0.94; Growth Rate [3, 4]: 0.77; Growth Rate [3, 13]: 0.54; Growth Rate [3, 11]: 0.29
CCCn1c(=O)c2[nH]c(C3CCCC3)nc2n(CCC)c1=O [1,3-DIPROPYL-8-CYCLOPENTYLXANTHINE [DPCPX]]	-0.53	–	–	0.95	-0.31	–	–	–	-0.1	–	0.79	–	0.81	–	0.72	0.03	–	-0.16	0.19	-1	Growth Rate [2, 12]: 0.38; Growth Rate [3, 4]: 0.58; Growth Rate [3, 9]: 0.57; Growth Rate [3, 13]: 0.84
CCCCC/C=C\C/C=C\C/C=C\C/C=C\CCCC(=O)OC(CO)CO [2-ARACHIDONOYLGLYCEROL]	–	0.9	–	–	–	–	–	–	0.93	–	–	0.51	0.64	0.69	0.67	–	0.99	–	–	0.65	Growth Rate [1, 10]: 0.81; Growth Rate [3, 9]: 0.94; Growth Rate [3, 13]: 0.72; Growth Rate [3, 11]: 0.75
CCNC(=O)c1cc2c(-c3cc(C(C)(C)O)ccc3Oc3c(C)cc(F)cc3C)cn(C)c(=O)c2[nH]1 [ABBV-744]	–	–	–	–	0.41	0.71	–	–	0.75	0.87	–	–	0.82	–	0.69	0.68	–	0.87	0.23	–	Growth Rate [1, 10]: -0.17; Growth Rate [3, 4]: 0.5; Growth Rate [3, 12]: 0.16; Growth Rate [3, 11]: 0.71
Nc1ncnc2c1ncn2[C@@H]1O[C@H](CO)[C@@H](O)[C@H]1O [ADENOSINE]	0.54	–	0.77	–	-0.04	–	–	–	0.58	–	–	–	–	0.98	0.79	0.59	–	0.7	0.25	–	Growth Rate [1, 9]: 0.47; Growth Rate [1, 13]: 0.84; Growth Rate [2, 12]: 0.19; Growth Rate [3, 4]: -0.6; Growth Rate [3, 12]: -0.36
